Experimental data from patent US5366966A, “Compound UCE6” (Kyowa Hakko Kogyo Co., Ltd., priority 1992, dated 1994).

Assays:
Solubility = type: physicochemical
HeLaS3 cells = assay: Inhibition on the Growth of HeLaS3 Cells (Neutral Red staining); type: cell-based; conditions: Homo sapiens, HeLa S3, 72 hours at 37° C., absorbance at 550 nm, read-out: IC50 (the concentration of the test compound capable of inhibiting the growth of the cells at a ratio of 50%)
Method: (A) Inhibition on the Growth of HeLaS3 Cells
0.1 ml portions of a 3×10^4 cell/ml suspension of HeLaS3 cells [American Type Culture Collection (ATCC) CCL2.2]. in Minimum Essential Medium (MEM) medium (mfd. by Nissui Seiyaku) containing 10% of calf fetal serum and 2 mM of glutamine (hereinafter referred to as the medium A) were pipetted into a 96-well microtiter plate. 0.05 ml of the test compound optionally diluted with the medium A is added to each well, followed by incubating in a carbon dioxide gas incubator at 37° C. for 72 hours. After removing supernatant the culture 0.1 ml of the medium A containing 0.02% of Neutral Red is added to the residue. The cells are cultivated in the carbon dioxide gas incubator at 37° C. for additional one hour to thereby stain the cells. After removing the supernatant of culture, the residue was washed with saline once. The pigment is extracted with 0.001 N hydrochloric acid/30% ethanol and the absorbance at 550 nm is measured with a microplate reader. Then IC50 (the concentration of the test compound capable of inhibiting the growth of the cells at a ratio of 50%) is calculated on the basis of the comparison between the absorbance of untreated cells and that of the test compound-treated cells (at various concentration of the test compound).

With `Cc1c(O)cc2c(c1O)C(=O)c1c(cc3cc(O)cc(CC(=O)CC(C)O)c3c1O)C2=O` (stereo not drawn) [UCE6] the Solubility (Solubility; in dimethylsulfoxide (DMSO), N,N-dimethylformamide and pyridine) was “soluble”, the Solubility (Solubility; in water, ethanol, methanol, ethyl acetate and chloroform) was “hardly soluble” and the IC50 (HeLaS3 cells) was 18 nM.
